This passage reports viability, T/C and IC50 results from PubChem BioAssay AID1963962 (Molecular Pharmacology Branch, DTP, NCI, 2024).

The subject of this assay is 967376-340-R-J2-PDC multicell spheroid viability. Put plainly: Anticancer human tumor 967376-340-R-J2-PDC patient-derived colon adenocarcinoma cell line growth inhibition [PI3K]. The conditions noted are these: for viability, T/C: stronger effect = lower value; for pIC50: curve of compound. The source says:
Combinatorial screen of targeted agents with the PI3K inhibitors inavolisib, alpelisib, duvelisib, and copanlisib in multi-cell type tumor spheroids
A high-throughput screen of multi-cell type tumor spheroids was designed to identify active combinations of targeted small molecules and PI3K pathway inhibitors. Complex spheroids include a stromal component modeled by human endothelial cells (HUVEC) and fibroblasts modeled by human mesenchymal stem cells (MSCs). The concentration ranges selected for each drug and investigational agent were based upon clinically achievable concentrations if the clinical Cmax of the agent was known.
Compounds. The drugs and investigational agents: inavolisib (NSC800729), alpelisib (NSC765974), duvelisib (NSC772469), copanlisib (NSC816437), ipatasertib (NSC767898), afuresertib (NSC778305), talazoparib (NSC767125), sapanisertib (NSC764658), selumetinib (NSC741078), tovorafenib (DAY101, NSC766906), vemurafenib (NSC761431), ravoxertinib (NSC781343), sotorasib (NSC818433), MRTX1133 (NSC 836407), abemaciclib (NSC 768073), palbociclib (NSC758247), venetoclax (NSC 766270), SY5609 (NSC837396), enzalutamide (NSC755605), and darolutamide (NSC825331), were obtained from the National Cancer Institute (NCI) Developmental Therapeutics Program Chemical Repository. The FDA-approved anticancer drug set is available from the NCI Developmental Therapeutics Program. […] The stock solutions were prepared in dimethyl sulfoxide (DMSO, Sigma-Aldrich, St. Louis, MO, cat. D2650) at 800-fold the tested concentration and stored at -70 degrees C prior to their use. All drugs and investigational agents were tested over a range starting from a high concentration at or near the clinical Cmax and decreasing in half-log increments. If the clinical Cmax for an agent had not been determined, the highest concentration tested was 10 microM.
Cell Culture. All cells were maintained in an incubator at 37 degrees C and 5% CO2 with 95% humidity. The PDC lines were cultured according to standard operating procedures established by the NCI PDMR (https://pdmr.cancer.gov/sops/default.htm). All PDCs were thawed and cultured in Matrigel-coated flasks prepared with a working solution of 1X Ham's F-12 nutrient mix, without supplementation (Invitrogen, Waltham, MA, cat. 11765054), 100 U/mL penicillin-streptomycin (Invitrogen, cat. 15140122), and 2.5% Matrigel (Corning Inc., Corning, NY, cat. 354248) for the first three passages. The 354836-022-R-J1-PDC, 475296-252-R-J1-PDC, and 997726-040-R-J2-PDC lines were cultured in 6A media, which includes advanced DMEM/F-12 (Thermo Fisher Scientific, cat. 12634028), 10 mM HEPES (Thermo Fisher Scientific, cat. 15630080), 1X GlutaMAX supplement (Thermo Fisher Scientific, cat. 35050061), 0.1 mg/mL primocin (InvivoGen, San Diego, CA, cat. ant-pm-2), 10% defined fetal bovine serum, heat inactivated (HyClone Laboratories Inc., Logan, UT, cat. SH30070.03HI), 50% L-WRN conditioned media (ATCC, cat. CRL-3276), 1.25 mM N-Acetyl-L-cysteine (Sigma-Aldrich, cat. A9165), 10 mM nicotinamide (Sigma-Aldrich, cat. N0636), 1X B-27 supplement (Thermo Fisher Scientific, cat. 17504044), 1X N-2 supplement (Thermo Fisher Scientific, cat. 17502048), and 10 microM Y-27632 dihydrochloride (Tocris Bioscience, Bristol, United Kingdom, cat. 1254). The 624824-186-R-J2-PDC line was cultured in 6C/Colon 1B media, which includes all 6A media components plus 50 ng/mL human EGF recombinant protein (Thermo Fisher Scientific, cat. PHG0311). […]

pIC50: −log10 of the molar value. Several values for one entry are separate records, joined by “and”; a condition that tells them apart may be missing. Equal values may be shown once.
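Further: spheroids exposed to agents for 7 days before read-out.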
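Wherever viability, T/C is given: luminescence used as surrogate of cell viability.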

For orientation: viability, T/C means the result in the treated group divided by that in the control group, in per cent. As usually defined, the pIC50 is the IC50 on a negative log10 scale, so that one unit is a factor of ten. As to `CNC(=O)c1ccc(N2C(=S)N(c3ccc(C#N)c(C(F)(F)F)c3)C(=O)C2(C)C)cc1F`, the pIC50 was less than 5.00. In addition, the viability, T/C (compound 0.1 µM) is 94.8% (2×) and 84.5% and 88.3%. Moreover, the viability, T/C (compound 0.316 µM) is 96.1% [middle of 4 runs]. Further, the viability, T/C (compound 1 µM) is 87.2% [middle of 4 runs]. Besides, the viability, T/C (compound 10 µM) was 102% [middle of 4 runs].
In the case of `C[C@@H](NC(=O)c1ncnc(N)c1Cl)c1ncc(C(=O)Nc2cc(C(F)(F)F)c(Cl)cn2)s1`, the negative-log IC50 (pIC50) was less than 5.00. The viability, T/C (compound 0.1 µM) is 95.8% [middle of 4 runs]. Also, the viability, T/C (compound 0.316 µM) is 94% [middle of 4 runs]. Where the note is “compound 1 µM”, the viability, T/C was 110% [middle of 4 runs]. Besides, for the setting “compound 3.16 µM”, the viability, T/C was 107% [middle of 4 runs]. The viability, T/C (compound 10 µM) is 109% [middle of 4 runs].
